Eight compounds from article PMC11050599, “Novel Tetracyclic Azaphenothiazines with the Quinoline Ring as New Anticancer and Antibacterial Derivatives of Chlorpromazine” (International Journal of Molecular Sciences, 2024) can be followed below.

A word on the IC50: it is the concentration at which inhibition is half-maximal. In general, MIC refers to the least concentration at which growth counts as inhibited.

Molecules are shown by their SMILES. Values after ≈ are worked out from the molar mass of the structure shown. Read-outs that look alike come from different tables or passages of the source.

Test [1] deals with MiaPaCa-2 (pancreas cancer). Kind of test: MTT assay, MiaPaCa-2 cells. The class given is cell-based, human. Particulars: for IC50: Homo sapiens, MIA PaCa-2, MTT, 72 h, read-out: IC50 MiaPaCa-2; for SI MiaPaCa-2: SI = IC50 for normal cell line (HaCaT)/IC50 cancer cell line. On the procedure: (§1) The human cell lines, such as A549 (lung cancer), MDA-MB-231 (breast cancer), MiaPaca-2 (pancreatic cancer), PC3 (metastatic prostate cancer), HCT-116 (colon carcinoma), and HaCaT (immortalized keratinocytes), were sourced from the American Type Culture Collection (ATCC) in Rockville, USA. Culturing conditions varied as follows: HCT116 cells were cultured in MEM (ThermoSci, Waltham, MA, USA), A549, MDA-MB-231, MiaPaca, HaCaT cells in DMEM High Glucose and PC3 cells were cultured in RPMI (Biowest SAS, Nuaillé, France). The growth medium consisted of 10% fetal bovine serum (FBS, Sigma-Aldrich, St. Louis, MO, USA), 20 mM HEPES (Biowest, Nuaillé, France), and antibiotics (100 U/mL of penicillin and 100 μg/mL of streptomycin) from Gibco, Grand Island, NY, USA. […] These compounds were added to 96-well plates containing study cells (1 × 10^4 cells per well) and incubated for 72 h. […] Cell absorbance results were incorporated into the formula for calculating the relative MTT level (%), enabling the assessment of cell viability following exposure to the test compounds. The cell viability percentage represents the MTT reduction in cells treated with the test compounds compared to the control sample, where only the medium was added to the cells.
A general note: Tetrazolium assays rely on reduction of a dye to a coloured formazan, in cell work by metabolically active cells.

Test [2] deals with A549 (lung cancer). Nature of the test: MTT assay, A549 cells. The class given is cell-based, human. Particulars: for IC50: Homo sapiens, A549, MTT, 72 h, mean SD, read-out: IC50 A549; for SI A549: SI = IC50 for normal cell line (HaCaT)/IC50 cancer cell line. On the procedure:
as §1

The test system of test [3] is MDA-MB-231 (breast cancer). Kind of test: MTT assay, MDA-MB-231 cells. The class given is cell-based, human. Particulars: for IC50: Homo sapiens, MDA-MB-231, MTT, 72 h, MDA-MB231, read-out: IC50 MDA; for SI MDA: SI = IC50 for normal cell line (HaCaT)/IC50 cancer cell line. How it is done: as §1
Test [4] concerns HaCaT (immortalized human keratinocytes). Nature of the test: MTT assay, HaCaT normal cells. The class given is cell-based. Particulars: Homo sapiens, HaCaT, MTT, 72 h, normal cells. How it is done:
as §1

For test [5], the system named is HCT116 (colon cancer). Nature of the test: MTT assay, HCT116 cells. The class given is cell-based, human. The settings on record: for IC50: Homo sapiens, HCT-116, MTT, 72 h, read-out: IC50 HCT116; for SI HCT116: SI = IC50 for normal cell line (HaCaT)/IC50 cancer cell line. How it is done: as §1
In test [6] the test system is PC3 (prostate cancer). Nature of the test: MTT assay, PC3 cells. The class given is cell-based, human. The settings on record: for IC50: Homo sapiens, PC-3, MTT, 72 h, read-out: IC50 PC3; for SI PC3: SI = IC50 for normal cell line (HaCaT)/IC50 cancer cell line. How it is done: as §1
For test [7], the system named is S. aureus ATCC 25923. Nature of the test: MIC broth microdilution. The settings on record: Staphylococcus aureus, ATCC25923; 19 h, 35 °C; read-out: MIC S. aureus ATCC 25923. The class given is cell-based. An excerpt: (§2) To evaluate the antibacterial effectiveness of chloroquinobenzothiazine derivatives, various bacterial strains from international microbe collections such as the American Type Culture Collection (ATCC) and the National Collection of Type Culture (NCTC) were examined, alongside a panel of clinical rods. This included two Gram-negative organisms, E. coli ATCC 25922 and P. aeruginosa ATCC 15442, and a series of six Gram-positive strains: S. aureus NCTC 4163; S. aureus ATCC 29213, 25923, and 6538; and S. epidermidis ATCC 12228 and 35984. […] The MIC was determined using the two-fold serial broth microdilution method in 96-well microtitration plates containing Mueller-Hinton II broth medium (Becton Dickinson, Franklin Lakes, NJ, USA). The final inoculum for all tested bacteria was adjusted to […] (colony-forming units per milliliter). The stock solution of the tested compounds was prepared in dimethyl sulfoxide (DMSO) and diluted to a maximum of 1% solvent content with a sterile medium.
(Dilution methods test growth across graded concentrations, often in twofold steps.)

The test system of test [8] is S. epidermidis ATCC 35984. Kind of test: MIC broth microdilution. The class given is cell-based. The settings on record: Staphylococcus epidermidis, ATCC35984; 19 h, 35 °C; read-out: MIC S. epidermidis ATCC 35984.
Text: as §2

The subject of test [9] is S. aureus NCTC 4163. Kind of test: MIC broth microdilution. The class given is cell-based. The settings on record: Staphylococcus aureus, NCTC4163; 19 h, 35 °C; read-out: MIC S. aureus NCTC 4163.
Text: as §2

The test system of test [10] is S. aureus ATCC 6538. Nature of the test: MIC broth microdilution. The class given is cell-based. The settings on record: Staphylococcus aureus, ATCC6538; 19 h, 35 °C; read-out: MIC S. aureus ATCC 6538.
Text: as §2

The subject of test [11] is P. aeruginosa ATCC 15442. Kind of test: MIC broth microdilution. The class given is cell-based. Particulars: Pseudomonas aeruginosa, ATCC15442; 19 h, 35 °C; read-out: MIC P. aeruginosa ATCC 15442.
Text: as §2

Test [12] has as its system E. coli ATCC 25922. Nature of the test: MIC broth microdilution. The settings on record: Escherichia coli, ATCC25922; 19 h, 35 °C; read-out: MIC E. coli ATCC 25922. The class given is cell-based.
Text: as §2

In test [13] the test system is S. epidermidis ATCC 12228. Kind of test: MIC broth microdilution. The class given is cell-based. Particulars: Staphylococcus epidermidis, ATCC12228; 19 h, 35 °C; read-out: MIC S. epidermidis ATCC 12228.
Text: as §2

For test [14], the system named is S. aureus ATCC 29213. Kind of test: MIC broth microdilution. The class given is cell-based. The settings on record: Staphylococcus aureus, ATCC29213; 19 h, 35 °C; read-out: MIC S. aureus ATCC 29213.
Text: as §2

In the case of `Clc1ccc2c(c1)N(CCN1CCCC1)c1nc3ccccc3cc1S2` [Compound 9, 8-Chloro-6-(2-(pyrrolidin-1-yl)ethyl)-quino[3,2-b]benzo[1,4]thiazine], the IC50 in test [1] was 57.4 ± 9.6 µM; in [2] it was 17.4 ± 4.1 µM; in test [3], 77.1 ± 1.6 µM; in test [4] (read-out: IC50 HaCaT (Table 3)), greater than 100 µM; in [5] it was 17.5 ± 1.4 µM; in test [6], 77.1 ± 9.4 µM. Moreover, the “SI MiaPaCa-2” value in test [1] came out at 1.7. Besides, in test [2], the “SI A549” value turned out to be 5.7. Also, in test [3], the “SI MDA” value was found to be 1.3. Also, the “SI HCT116” value in test [5] was found to be 5.7. Also, in [6], the “SI PC3” value stood at 1.3. The MIC in test [7] was 16 µg/mL (≈ 41.9 µM); in test [8], 16 µg/mL (≈ 41.9 µM); in [9] it was 16 µg/mL (≈ 41.9 µM); in test [10] it was 16 µg/mL (≈ 41.9 µM); in test [11] it was greater than 256 µg/mL; in test [12], greater than 256 µg/mL. In addition, the MIC in test [13] and in test [14] was 16 µg/mL (≈ 41.9 µM) in each case.
On to `Cc1ccc(S(=O)(=O)NCCCN2c3cc(Cl)ccc3Sc3cc4ccccc4nc32)cc1` [Compound 24, N-(3-(8-Chloroquino[3,2-b]benzo[1,4]thiazin-6-yl)propyl)-4-methylbenzenesulfonamide], for which the half-inhibitory concentration (IC50) in test [2], in test [3] and in [4] (read-out: IC50 HaCaT (Table 3)) was greater than 100 µM each time. In addition, the “SI A549” value in test [2] worked out at 1.0. Also, in test [3], the “SI MDA” value is 1.0. Moreover, the MIC in test [7], in [8], in test [9], in [10], in [11] and in test [12] was greater than 256 µg/mL in each case. Also, the MIC in test [13] and in test [14] was greater than 256 µg/mL in each case.
In the case of `C#CCN1c2cc(Cl)ccc2Sc2cc3ccccc3nc21` [Compound 26, 8-chloro-6-propynyquinobenzothiazine], the IC50 in test [2] was greater than 100 µM; in test [3] it was 95.8 ± 9.2 µM; in [4] (read-out: IC50 HaCaT (Table 3)), 71.7 ± 5.7 µM. Moreover, in test [2], the “SI A549” value is reported as 1.0. In addition, in test [3], the “SI MDA” value stood at 0.7. Besides, the MIC in [7], in [8], in [9], in [10], in test [11] and in [12] was greater than 256 µg/mL throughout. The MIC in test [13] and in test [14] was greater than 256 µg/mL throughout.
As for `Clc1ccc2c(c1)N(Cc1cn(-c3ccccc3)nn1)c1nc3ccccc3cc1S2` [Compound 27, 8-Chloro-6-((1-phenyl-1H-1,2,3-triazol-4-yl)methyl)-quino[3,2-b]benzo[1,4]thiazine], the half-inhibitory concentration (IC50) was 37.4 ± 5.6 µM in test [1]; 27.5 ± 6.2 µM in test [2]; greater than 100 µM in test [3]; 70.2 ± 10.4 µM in [4] (read-out: IC50 HaCaT (Table 3)); 71.7 ± 7.5 µM in [4] (read-out: IC50 HaCaT (Table 4)); 49.6 ± 4.7 µM in test [5]. Further, the IC50 in test [6] was greater than 100 µM. The “SI MiaPaCa-2” value in test [1] is recorded as 1.9. The “SI A549” value in [2] amounted to 2.5. Besides, the “SI MDA” value in [3] is given as 0.7. Moreover, the “SI HCT116” value in test [5] is reported as 1.4. Besides, the “SI PC3” value in test [6] came to 1.0. Also, the MIC in [7], in test [8], in test [9], in [10], in [11] and in test [12] was greater than 256 µg/mL throughout. Besides, the MIC in test [13] and in [14] was greater than 256 µg/mL throughout.
Take `FC(F)(F)c1ccc(-n2cc(CN3c4cc(Cl)ccc4Sc4cc5ccccc5nc43)nn2)cc1` [Compound 28, 8-Chloro-6-((1-(4-(trifluoromethyl)phenyl)-1H-1,2,3-triazol-4-yl)methyl)-quino[3,2-b]benzo[1,4]thiazine]: the IC50 in test [2], in test [3] and in test [4] (read-out: IC50 HaCaT (Table 3)) was greater than 100 µM throughout. Besides, the “SI A549” value in test [2] is 1.0. In addition, in test [3], the “SI MDA” value is given as 1.0. Moreover, the MIC in test [7], in test [8], in [9], in test [10], in test [11] and in [12] was greater than 256 µg/mL each time. The MIC in [13] and in test [14] was greater than 256 µg/mL each time.
In the case of `Fc1ccc(Cn2cc(CN3c4cc(Cl)ccc4Sc4cc5ccccc5nc43)nn2)cc1` [Compound 30, 8-chloro-6-((1-(4-fluorobenzyl)-1H-1,2,3-triazol-4-yl)methyl)-quino[3,2-b]benzo[1,4]thiazine], the IC50 in test [2], in test [3] and in [4] (read-out: IC50 HaCaT (Table 3)) was greater than 100 µM throughout. The “SI A549” value in test [2] turned out to be 1.0. The “SI MDA” value in test [3] turned out to be 1.0. Moreover, the MIC in test [7], in test [8], in test [9], in test [10], in test [11] and in test [12] was greater than 256 µg/mL each time. Besides, the MIC in [13] and in test [14] was greater than 256 µg/mL in each case.
Consider `N#Cc1ccc(Cn2cc(CN3c4cc(Cl)ccc4Sc4cc5ccccc5nc43)nn2)cc1` [Compound 32, 4-((4-((8-Chloroquino[3,2-b]benzo[1,4]thiazin-6-yl)methyl)-1H-1,2,3-triazol-1-yl)methyl)benzonitrile], for which the IC50 in test [2], in test [3] and in test [4] (read-out: IC50 HaCaT (Table 3)) was greater than 100 µM throughout. Further, the “SI A549” value in test [2] came to 1.0. The “SI MDA” value in test [3] turned out to be 1.0. The minimal inhibitory concentration (MIC) in test [7], in test [8], in test [9], in test [10], in test [11] and in [12] was greater than 256 µg/mL each time. In addition, the MIC in test [13] and in [14] was greater than 256 µg/mL throughout.
Regarding `Clc1ccc2c(c1)N(Cc1cn(CSc3ccccc3)nn1)c1nc3ccccc3cc1S2` [Compound 33, 8-Chloro-6-((1-((phenylthio)methyl)-1H-1,2,3-triazol-4-yl)methyl)-quino[3,2-b]benzo[1,4]thiazine], the IC50 in test [2], in test [3] and in [4] (read-out: IC50 HaCaT (Table 3)) was greater than 100 µM each time. In addition, the “SI A549” value in [2] is listed as 1.0. In addition, the “SI MDA” value in [3] stood at 1.0. The MIC in test [7], in [8], in test [9], in [10], in [11] and in test [12] was greater than 256 µg/mL throughout. The MIC in [13] and in test [14] was greater than 256 µg/mL in each case.
